Assay in all cases: growth of human tumour cells (NCI), 48 h
The test system of assay [1] is NCI-H226.
For assay [2], the system named is K562.
In assay [3] the test system is HOP-92.
Assay [4] relates to M14.
The test system of assay [5] is SF-539.
Assay [6] concerns PC-3.
Assay [7] concerns Malme-3M.
Assay [8] deals with RXF 393.
Assay [9] concerns SNB-19.
Assay [10] deals with OVCAR-8.
Assay [11] concerns U-251.
Assay [12] concerns MDA-N.
Assay [13] has as its system OVCAR-5.
Assay [14] concerns A498.
For assay [15], the system named is SK-MEL-28.
Assay [16] has as its system RPMI-8226.
Assay [17] concerns TK-10.
The test system of assay [18] is SK-OV-3.
Assay [19] has as its system Hs-578T.
The subject of assay [20] is NCI-H460.

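Compound exposure: 48 hours, 5 concentrations, 96-well plates. Abbreviation: GI50, concentration required for 50% inhibition of growth.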 The source made the active and inactive calls. Rule as the data show it: active = GI50 up to about 1.1 µM and inactive = higher.

For `CSc1nc2c(c(=O)[nH]1)N=C(c1ccc(Cl)cc1)CC(c1ccccc1)N2` (centres undefined), the GI50 in [1] was 24.8 µM (inactive); in assay [2] it was 22.2 µM (inactive); in assay [3], 18.4 µM (inactive); in assay [4], 16.3 µM (inactive); in [5], 19.2 µM (inactive); in assay [6], 19 µM (inactive). The GI50 in [7] was 19.5 µM (inactive); in assay [8], 17.2 µM (inactive); in assay [9], 15.2 µM (inactive); in assay [10] it was 16.5 µM (inactive); in [11] it was 17.7 µM (inactive); in [12], 17.6 µM (inactive). For the same molecule, the GI50 is 18.1 µM (inactive) in assay [13], 30.2 µM (inactive) in [14], 17.3 µM (inactive) in [15] and 17.4 µM (inactive) in [16].
With `O=c1ccc(=O)c2c1c1[nH]c3ccccc3c1c1c(=O)c3ccccc3c(=O)c21`, the GI50 is 4.92 µM (inactive) in assay [17]; > 10 µM (inactive) in assay [1]; 5.32 µM (inactive) in assay [2]; 0.333 µM (active) in [3]; > 10 µM (inactive) in assay [18]; > 10 µM (inactive) in assay [4]. Moreover, the GI50 in [5], in assay [6], in assay [7], in [8], in assay [9] and in assay [19] was > 10 µM (inactive) throughout. The GI50 in assay [20], in assay [10], in assay [11], in assay [13], in assay [14] and in assay [15] was > 10 µM (inactive) in each case. For the same molecule, the GI50 in assay [16] is > 10 µM (inactive).
As to `CC1(C)OC2[C@@H](CO[C@@]3([C@@H](O)CCO)OC(C)(C)O[C@@H]23)O1` (some centres undefined), the GI50 in assay [17], in [1], in assay [2], in [3], in assay [4] and in [5] was > 100 µM (inactive) each time. For the same molecule, the GI50 in [6], in assay [8], in [9], in assay [20], in assay [10] and in assay [11] was > 100 µM (inactive) in each case. Further, the GI50 in [12], in assay [13], in [15] and in assay [16] was > 100 µM (inactive) each time.
For the molecule `N#CC(C(=O)C(=O)NCCCNC(=O)C(=O)C(C#N)c1ccccc1)c1ccccc1` (centres undefined), the GI50 in assay [17], in assay [1], in [2], in assay [3], in assay [18] and in assay [4] was > 100 µM (inactive) throughout. Moreover, the GI50 in assay [5] was > 100 µM (inactive); in assay [7], > 100 µM (inactive); in assay [8], > 100 µM (inactive); in assay [9], 5.33 µM (inactive); in assay [20] it was > 100 µM (inactive); in [10], > 100 µM (inactive). The GI50 in assay [11], in [13], in assay [14], in [15] and in assay [16] was > 100 µM (inactive) each time.
On to `COc1cc2c(cc1C)NC(=O)/C2=C\c1ccncc1`, for which the GI50 is 5.86 µM (inactive) in [17]; 3.66 µM (inactive) in [2]; 26.1 µM (inactive) in assay [3]; 3.96 µM (inactive) in [18]; 3.98 µM (inactive) in assay [4]; 2.82 µM (inactive) in assay [5]. In addition, the GI50 in assay [6] is 6.55 µM (inactive); in [7], 15.5 µM (inactive); in [8] it was 3.76 µM (inactive); in assay [9], 5.2 µM (inactive); in assay [19], 3.6 µM (inactive); in assay [20], 17.7 µM (inactive). In addition, the GI50 is 2.52 µM (inactive) in assay [10], 4.39 µM (inactive) in assay [11], 10.9 µM (inactive) in assay [13] and 11.1 µM (inactive) in assay [15].
In the case of `CC(C)(C)OC(=O)NCCNCCNc1ccccc1`, the GI50 in [17], in assay [1], in assay [2], in assay [3], in assay [18] and in [4] was > 100 µM (inactive) throughout. For the same molecule, the GI50 in [5], in assay [6], in assay [7], in [8], in assay [9] and in assay [20] was > 100 µM (inactive) each time. The GI50 is > 100 µM (inactive) in assay [10]; > 100 µM (inactive) in assay [11]; 97.5 µM (inactive) in assay [12]; > 100 µM (inactive) in assay [13]; > 100 µM (inactive) in assay [15]; > 100 µM (inactive) in assay [16].
Take `Cc1ccc2[nH]c3c(c2c1)CCC/C3=N/N=C(N)N`: the GI50 in assay [1] is 2.11 µM (inactive); in assay [2] it was 2.08 µM (inactive); in assay [3] it was 2.33 µM (inactive); in [18], 19.1 µM (inactive); in [4] it was 1.57 µM (inactive); in assay [5] it was 1.62 µM (inactive). Also, the GI50 is 2.64 µM (inactive) in [6]; 2.11 µM (inactive) in assay [7]; 2.15 µM (inactive) in assay [8]; 1.99 µM (inactive) in assay [9]; 1.4 µM (inactive) in assay [20]; 1.91 µM (inactive) in assay [10]. The GI50 in [11] was 2.1 µM (inactive); in [12], 1.49 µM (inactive); in assay [13], 2.09 µM (inactive); in assay [14], 7.14 µM (inactive); in assay [15] it was 2.24 µM (inactive); in assay [16], 2.5 µM (inactive).
`COc1c(Cl)cc(NC(=S)C#N)cc1Cl`: the GI50 in assay [17] was 33.8 µM (inactive); in assay [1], 22.5 µM (inactive); in assay [2], > 52.2 µM (inactive); in assay [3], 22.6 µM (inactive); in assay [18], 29.7 µM (inactive); in assay [4], 24.5 µM (inactive). Further, the GI50 is 23.8 µM (inactive) in assay [5]; 24.3 µM (inactive) in assay [6]; 20.6 µM (inactive) in assay [7]; 27.3 µM (inactive) in assay [8]; 32.9 µM (inactive) in [9]; 23.9 µM (inactive) in [20]. Moreover, the GI50 in assay [10] was 28.4 µM (inactive); in assay [11] it was 17.7 µM (inactive); in [12], 25.5 µM (inactive); in [13], 37.1 µM (inactive); in [14], 19.1 µM (inactive); in assay [15], 26.7 µM (inactive). Besides, the GI50 in assay [16] was 22.8 µM (inactive).

These data come from ChEMBL document CHEMBL1201862, “PubChem BioAssay data set” (2004).
